According to ChEMBL document CHEMBL5241084, “Non-carbohydrate strategies to inhibit lectin proteins with special emphasis on galectins” (Eur J Med Chem, 2021):
One block for each molecule: values may come before it. Starred links: 1 amine or outer side, 2 acyl side, 3 side chain; linkers in the order of their positions; H or OH if unused. Non-standard residues stand in square brackets, D forms with d. Residues, ends and D or L forms follow the SMILES beside them. X2 = O=C(CCc1cccc2c1Cc1c(CCN[*:1])cccc1-2)[*:2]; X3 = O=C(CCc1cccc2c1oc1c(CCN[*:1])cccc12)[*:2]; Nva = CCC[C@H](N)C(=O)O

Experiments:
SK-OV-3 = assay: Anticancer activity against human SK-OV-3 cells assessed as reduction in cell viability and measured after 72 hrs by CellTiter-Glo reagent based assay; assay type: functional; conditions: SK-OV-3, 72 h
[1] = molecular target: C-type lectin domain family 4 member K (Homo sapiens, UniProt Q9UJ71); assay: Inhibition of human Langerin overexpressed in human Raji cells incubated for 30 mins by flow cytometry; assay type: cell-based
C-type lectin domain family 4 member K, sequence (Q9UJ71 whole entry, the tested form may be a part): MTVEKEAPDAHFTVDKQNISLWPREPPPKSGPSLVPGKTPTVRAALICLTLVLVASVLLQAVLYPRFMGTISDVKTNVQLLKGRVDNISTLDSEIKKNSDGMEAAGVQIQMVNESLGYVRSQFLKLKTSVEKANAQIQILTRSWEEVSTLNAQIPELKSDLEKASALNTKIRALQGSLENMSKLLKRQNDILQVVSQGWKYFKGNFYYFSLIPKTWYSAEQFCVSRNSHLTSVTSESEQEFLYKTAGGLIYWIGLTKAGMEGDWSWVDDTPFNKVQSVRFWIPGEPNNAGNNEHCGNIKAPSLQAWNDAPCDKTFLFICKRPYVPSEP

MG-63 = assay: Anticancer activity against human MG-63 cells assessed as reduction in cell viability incubated for 48 hrs by MTT assay; assay type: functional, cell-based; conditions: MG-63, 48 h
MDCK = assay: Antimigratory activity against dog MDCK cells assessed as inhibition of cell migration preincubated for 0.5 hrs followed by wounding and measured after 24 hrs by wound closure assay; assay type: functional, cell-based; conditions: Canis lupus familiaris
[2] = Anti-angiogenic activity in human MA148 cells xenografted in athymic nude mouse assesed as tumor growth inhibition at 10 mg/kg, sc weekly once for 28 days; assay type: functional; conditions: MA148, 672 h, time 28 day, read-out: TGI
HUVEC = assay: Antiproliferative activity against human HUVEC cells assessed as inhibition of basic fibroblast growth factor stimulated stimulated cell proliferation incubated for 72 hrs by CCK-8 assay; assay type: functional, cell-based
MCF7 = assay: Anticancer activity against human MCF7 cells assessed as reduction in cell viability incubated for 48 hrs by MTT assay; assay type: functional, cell-based; conditions: MCF7, 48 h
A549 = assay: Anticancer activity against human A549 cells assessed as reduction in cell viability incubated for 48 hrs by MTT assay; assay type: functional, cell-based; conditions: A549, 48 h
NCI-H460 = assay: Anticancer activity against human NCI-H460 cells assessed as reduction in cell viability incubated for 48 hrs by MTT assay; assay type: functional, cell-based; conditions: NCI-H460, 48 h
[3] = Anticancer activity against human MDA-MB-231 cells assessed as reduction in cell viability incubated for 48 hrs by MTT assay; assay type: functional, cell-based; conditions: MDA-MB-23, 48 h
P-selectin = molecular target: T1, P-selectin (Homo sapiens, UniProt P16109); assay: Inhibition of P-selectin (unknown origin) incubated for 30 mins by ELISA
T1 sequence (P16109 whole entry): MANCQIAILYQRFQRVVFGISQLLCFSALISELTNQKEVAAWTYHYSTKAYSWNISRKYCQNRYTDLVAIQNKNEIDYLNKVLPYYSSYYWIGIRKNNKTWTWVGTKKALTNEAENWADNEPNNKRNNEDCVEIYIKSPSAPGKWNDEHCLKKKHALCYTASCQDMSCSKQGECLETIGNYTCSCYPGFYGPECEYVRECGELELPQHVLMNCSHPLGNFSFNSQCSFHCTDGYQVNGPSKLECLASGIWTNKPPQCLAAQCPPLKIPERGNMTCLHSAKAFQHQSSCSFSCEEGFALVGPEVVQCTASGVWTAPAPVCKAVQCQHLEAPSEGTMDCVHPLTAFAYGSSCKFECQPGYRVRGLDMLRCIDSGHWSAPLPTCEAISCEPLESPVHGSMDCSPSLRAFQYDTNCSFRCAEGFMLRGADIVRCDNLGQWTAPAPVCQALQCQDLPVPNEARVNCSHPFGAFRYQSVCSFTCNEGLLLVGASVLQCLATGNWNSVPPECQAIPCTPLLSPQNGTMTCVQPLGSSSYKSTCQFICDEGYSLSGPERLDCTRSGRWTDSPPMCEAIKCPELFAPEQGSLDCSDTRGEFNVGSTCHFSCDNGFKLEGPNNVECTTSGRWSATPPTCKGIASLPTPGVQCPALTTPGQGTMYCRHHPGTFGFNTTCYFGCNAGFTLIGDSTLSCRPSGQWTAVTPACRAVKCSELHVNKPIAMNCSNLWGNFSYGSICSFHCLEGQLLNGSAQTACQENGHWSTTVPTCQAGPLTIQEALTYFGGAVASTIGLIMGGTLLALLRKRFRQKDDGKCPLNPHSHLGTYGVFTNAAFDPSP

PC-3 = assay: Antiproliferative activity against human PC-3 cells assessed as reduction in cell proliferation incubated for 72 hrs by SRB assay; assay type: functional, cell-based; conditions: PC-3, 72 h
DU-145 = assay: Antiproliferative activity against human DU-145 cells assessed as reduction in cell proliferation incubated for 72 hrs by SRB assay; assay type: functional, cell-based; conditions: DU-145, 72 h
Galectin-1 [4] = molecular target: T2, Galectin-1 (Homo sapiens, UniProt P09382); assay: Binding affinity to human Gal-1 assessed as decrease in Gal-1 levels by ELISA
T2 sequence (P09382 whole entry): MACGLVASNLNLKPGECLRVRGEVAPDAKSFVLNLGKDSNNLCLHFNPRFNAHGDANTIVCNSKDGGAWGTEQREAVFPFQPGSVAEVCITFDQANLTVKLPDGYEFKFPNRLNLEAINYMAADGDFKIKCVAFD

Galectin-1 [5] = molecular target: T2, Galectin-1; assay: Binding affinity to Gal-1 (unknown origin) incubated for 30 mins by RP-HPLC analysis
Galectin-1 [6] = molecular target: T2, Galectin-1; assay: Binding affinity to Gal-1 (unknown origin) by fluorescence spectroscopy

Molecule: CC1CN(Cc2cc(=O)oc3cc(OCc4cn(Cc5ccc(Cl)cc5Cl)nn4)ccc23)CC(C)O1 (centres undefined)
IC50 (MG-63): 0.8 µM

Molecule: COc1cccc2c1[C@H](CO)N1[C@@H](C#N)[C@H]3C[C@@H](C(=O)O)[C@H]([C@@H]1C2)N3C
IC50 (MDCK): 140 µM

Molecule: H-ANIKLSVQMKLFKRHLKWKIIVKLNDGRELSLD-OH
inhibition in vivo at 10 mg/kg [2]: 80%

Molecule: CCOC(=O)c1cc(C(F)(F)F)n[nH]1
IC50 [1]: 580 µM

Molecule: CCC[C@H](NC(=O)[C@H](CCC(N)=O)NC(=O)[C@@H](NC(=O)[C@@H](N)CO)C(C)C)C(=O)N[C@@H](CCCCN)C(=O)N[C@@H](CC(C)C)C(=O)NCCc1cccc2c1Cc1c(CCC(=O)N[C@H](C(=O)N[C@H](C(=O)N[C@H](C(=O)N[C@@H](CCCCN)C(=O)N[C@@H](CC(C)C)C(=O)N[C@@H](CC(N)=O)C(=O)N[C@@H](C)C(=O)O)C(C)C)[C@@H](C)CC)[C@@H](C)CC)cccc1-2 (H-SVQ[Nva]KL[X2]IIVKLNA-OH)
IC50 (HUVEC): 10 µM

Molecule: CC[C@H](C)[C@H](NC(=O)[C@H](C)NC(=O)CCc1cccc2c1oc1c(CCNC(=O)[C@H](CC(C)C)NC(=O)[C@H](CCCCN)NC(=O)[C@H](CCSC)NC(=O)[C@H](CCC(N)=O)NC(=O)[C@@H](NC(=O)[C@@H](N)CO)C(C)C)cccc12)C(=O)N[C@H](C(=O)N[C@@H](CCCCN)C(=O)N[C@@H](CC(C)C)C(=O)N[C@@H](CC(N)=O)C(=O)N[C@@H](C)C(=O)O)C(C)C (H-SVQMKL[X3]AIVKLNA-OH)
IC50 (HUVEC): 5 µM

Molecule: COc1c(C)c(OC)c2c(c1OCc1ccccc1)[C@H](COCc1ccccc1)N1[C@@H]3[C@H]4[C@H](C[C@H]([C@@H]1C#N)N4C)C(=O)N[C@H]23
IC50 (MDCK): 32.5 µM

Continued, in another order:

IC50 (SK-OV-3): 15.7 µM
Molecule: CC(=O)OCCN(CCOC(C)=O)c1ccc(-c2nc3cc(C(CC(N)=O)NC(=O)C(N)Cc4ccc(Cl)c(Cl)c4)ccc3n2Cc2ccc(F)c(F)c2)cc1 (centres undefined)

IC50 [1]: 1190 µM
Molecule: CCOC(=O)C1CCNC(=O)C1O (centres undefined)

IC50 [1]: 1150 µM
Molecule: CCN1CCN(CC(C)c2ccc(F)cc2)CC1 (centres undefined)

IC50 (MCF7): 1.3 µM | IC50 (A549): 0.63 µM | IC50 (NCI-H460): 0.99 µM
Molecule: Oc1cccc(-n2cc(COc3ccc(-c4nc5cc(Cl)ccc5n4Cc4ccccc4)cc3)nn2)c1
IC50 [3]: 0.94 µM

IC50 (P-selectin): 0.3 µM
Molecule: CCCCCCCCCCCCCCCCNC(=O)/C=C/c1ccc(-c2[nH]c(-c3ccc(C4=NNC(C=O)C4)cc3)nc2-c2ccc(/C=C/C(=O)O)cc2)cc1 (centres undefined)

IC50 (PC-3): 7.45 µM | IC50 (DU-145): 8.95 µM | IC50 (Galectin-1 [4]): 100 µM
Molecule: CCOC(=O)C1CCN(Cc2cc(=O)oc3cc(OCc4ccc([N+](=O)[O-])cc4)ccc23)CC1

IC50 (MCF7): 7.01 µM | Activity (Galectin-1 [5]): 85.4%
Molecule: O=C(Nc1ccc(O)cc1)c1ccc(-c2nc3cc(Cl)ccc3n2Cc2ccccc2)cc1

IC50 [1]: 1060 µM
Molecule: CCOC(=O)c1sc(=O)[nH]c1C(F)(F)F

IC50 [1]: 1030 µM
Molecule: Cc1n[nH]c(C)c1Cc1ccc(O)cc1

Ka (Galectin-1 [6]): 6.6 10^5/M
Molecule: COc1ccc2c(c1)c(C/C=C(/O)c1cc3ccccc3oc1=O)cn2Cc1cccc(Cl)c1

IC50 [1]: 590 µM
Molecule: O=C(O)c1cccnc1Nc1cccc(C(F)(F)F)c1 [NIFLUMIC ACID]
